In ChEMBL document CHEMBL1201862, “PubChem BioAssay data set” (2004):
Blank lines part the entries; values can stand above or below the molecule they belong to. Calls of active or inactive are those of the source.

Key:
Troponin, cardiac muscle = Troponin, cardiac muscle (Homo sapiens, UniProt P19429+P45379+P63316); assay: Fluorescence-based biochemical high throughput dose response assay for activators of the calcium sensitivity of cardiac Regulated Thin Filaments (RTF). [Related pubchem assays (depositor defined):AID493008, AID493018, AID504382, AID504383]; type: protein-complex assay
[1] = biological target: T1, E3 ubiquitin-protein ligase XIAP (Homo sapiens, UniProt P98170); assay: Counter Screen using XIAP-Bir3 for Chemical Antagonists of Bir1/2 domains of IAP-family anti-apoptotic proteins. [Related pubchem assays (depositor defined):AID1018, AID1449, AID1514, AID1638, AID1749, AID1750, AID488957, AID488963]
[2] = biological target: T1, E3 ubiquitin-protein ligase XIAP; assay: XIAP antagonists, biochemical, IAP family, fluorescence polarization (AID 1018); type: functional
[3] = biological target: T2, Rac GTPase-activating protein 1 (Homo sapiens, UniProt Q9H0H5); assay: MgcRacGAP GTPase-activating activity inhibitors, confirmation, biochemical, ADP Hunter fluorescence, primary and confirmatory (AID 624330); type: functional
T2 sequence (Q9H0H5 whole entry): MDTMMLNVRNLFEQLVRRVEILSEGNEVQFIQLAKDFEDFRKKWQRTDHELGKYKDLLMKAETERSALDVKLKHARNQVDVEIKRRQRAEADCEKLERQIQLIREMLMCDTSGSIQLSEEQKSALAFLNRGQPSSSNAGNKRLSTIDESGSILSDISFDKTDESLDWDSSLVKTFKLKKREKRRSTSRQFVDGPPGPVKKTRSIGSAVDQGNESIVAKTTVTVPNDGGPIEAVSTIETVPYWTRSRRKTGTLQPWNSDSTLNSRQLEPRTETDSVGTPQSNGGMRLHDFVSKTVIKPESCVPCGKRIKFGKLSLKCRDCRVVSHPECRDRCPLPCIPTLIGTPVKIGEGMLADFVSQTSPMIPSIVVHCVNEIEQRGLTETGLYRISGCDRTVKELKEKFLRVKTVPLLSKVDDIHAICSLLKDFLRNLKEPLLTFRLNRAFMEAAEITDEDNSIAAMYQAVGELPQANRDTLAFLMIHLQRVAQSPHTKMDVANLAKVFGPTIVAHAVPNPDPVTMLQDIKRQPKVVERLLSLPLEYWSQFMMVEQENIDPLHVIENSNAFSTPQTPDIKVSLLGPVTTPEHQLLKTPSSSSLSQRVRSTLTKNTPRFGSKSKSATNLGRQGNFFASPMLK

[4] = biological target: Glyceraldehyde-3-phosphate dehydrogenase (Homo sapiens, UniProt P04406)
[5] = biological target: Alkaline phosphatase, placental type (Homo sapiens, UniProt P05187); assay: PLAP enzyme inhibitors, confirmation, biochemical, luminescence (AID 1512); type: functional
[6] = biological target: T3, Alkaline phosphatase, tissue-nonspecific isozyme (Homo sapiens, UniProt P05186); assay: human TNAP enzyme inhibitors, SAR follow-up, biochemical, luminescent, dose response (AID 1056)
T3 sequence (P05186 whole entry): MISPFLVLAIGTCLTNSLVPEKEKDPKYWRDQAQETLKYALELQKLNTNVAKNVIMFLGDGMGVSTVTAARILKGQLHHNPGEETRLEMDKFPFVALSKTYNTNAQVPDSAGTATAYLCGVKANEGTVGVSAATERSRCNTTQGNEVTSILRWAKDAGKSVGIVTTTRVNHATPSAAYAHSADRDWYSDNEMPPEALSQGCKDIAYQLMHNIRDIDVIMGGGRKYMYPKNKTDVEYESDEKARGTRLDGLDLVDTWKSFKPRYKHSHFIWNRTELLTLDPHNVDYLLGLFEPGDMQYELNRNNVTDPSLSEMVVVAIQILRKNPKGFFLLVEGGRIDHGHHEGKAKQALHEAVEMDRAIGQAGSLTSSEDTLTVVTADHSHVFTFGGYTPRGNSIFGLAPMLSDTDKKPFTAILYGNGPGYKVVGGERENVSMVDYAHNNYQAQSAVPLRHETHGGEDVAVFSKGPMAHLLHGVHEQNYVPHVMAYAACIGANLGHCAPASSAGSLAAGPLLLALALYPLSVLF

[7] = biological target: T4, Mannose-6-phosphate isomerase (Homo sapiens, UniProt P34949); assay: PMI enzyme inhibitors, confirmation, biochemical, fluorescence intensity (AID 1535)
T4 sequence (P34949 whole entry): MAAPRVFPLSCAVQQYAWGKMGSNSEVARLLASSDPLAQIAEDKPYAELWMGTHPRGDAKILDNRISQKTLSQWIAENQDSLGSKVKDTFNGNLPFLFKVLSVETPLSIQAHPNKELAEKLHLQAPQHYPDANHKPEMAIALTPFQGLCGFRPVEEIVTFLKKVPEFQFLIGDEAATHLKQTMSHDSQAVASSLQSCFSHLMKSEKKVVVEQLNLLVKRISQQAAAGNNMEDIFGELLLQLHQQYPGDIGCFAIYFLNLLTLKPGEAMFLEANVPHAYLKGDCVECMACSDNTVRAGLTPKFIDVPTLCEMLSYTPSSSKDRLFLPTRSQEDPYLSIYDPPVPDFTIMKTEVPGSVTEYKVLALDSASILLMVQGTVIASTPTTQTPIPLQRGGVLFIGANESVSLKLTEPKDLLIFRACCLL

Phosphomannomutase 2 = Phosphomannomutase 2 (Homo sapiens, UniProt O15305); assay: Counter screen SAR assay for PMM2 inhibitors via a fluorescence intensity assay. [Related pubchem assays (depositor defined):AID1545, AID1574]
[8] = biological target: DNA damage-inducible transcript 3 protein (Mus musculus, UniProt P35639); type: functional, Cricetulus griseus
[9] = biological target: T5, Voltage-gated N-type calcium channel alpha-1B subunit/Amyloid beta A4 precursor protein-binding family A member 1 (Homo sapiens, UniProt Q00975+Q02410); type: protein assay
[10] = biological target: T5, Voltage-gated N-type calcium channel alpha-1B subunit/Amyloid beta A4 precursor protein-binding family A member 1; type: protein assay; remark: listed apart in the source
Coagulation factor XII = biological target: T6, Coagulation factor XII (Homo sapiens, UniProt P00748); assay: FXIIa inhibitor potency, concentration-response, biochemical (AID 716); type: functional
T6 sequence (P00748 whole entry): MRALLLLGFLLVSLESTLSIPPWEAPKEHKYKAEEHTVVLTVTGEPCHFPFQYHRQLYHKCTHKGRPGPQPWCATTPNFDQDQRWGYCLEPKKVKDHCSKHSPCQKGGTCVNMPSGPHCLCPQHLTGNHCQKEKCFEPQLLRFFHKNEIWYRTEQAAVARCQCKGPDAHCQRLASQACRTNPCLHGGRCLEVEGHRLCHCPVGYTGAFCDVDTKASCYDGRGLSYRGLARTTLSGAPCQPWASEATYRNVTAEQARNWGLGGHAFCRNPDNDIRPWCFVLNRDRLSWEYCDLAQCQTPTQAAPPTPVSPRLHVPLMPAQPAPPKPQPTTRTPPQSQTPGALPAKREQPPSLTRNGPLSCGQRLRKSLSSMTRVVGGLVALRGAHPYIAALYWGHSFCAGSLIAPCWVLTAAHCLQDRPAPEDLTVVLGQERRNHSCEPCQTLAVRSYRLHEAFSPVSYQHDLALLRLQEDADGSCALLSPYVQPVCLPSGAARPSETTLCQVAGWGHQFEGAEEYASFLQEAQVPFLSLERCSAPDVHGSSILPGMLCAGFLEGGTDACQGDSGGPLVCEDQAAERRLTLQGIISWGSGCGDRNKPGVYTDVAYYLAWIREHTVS

HEK293 [11] = assay: NOD1 signaling inhibitors, primary screen, cell-based, luminescence, uHTS (AID 1578); type: functional; conditions: Homo sapiens
HEK293 [12] = assay: cells; type: functional, cell-based; conditions: Homo sapiens
HEK293 [13] = assay: cells; type: functional, cell-based; conditions: Homo sapiens; remark: listed apart in the source
[14] = biological target: Nucleotide-binding oligomerization domain-containing protein 2 (Homo sapiens, UniProt Q9HC29); assay: NOD2 signaling inhibitors, cell-based, luminescence, uHTS, HEK293 (AID 1566); type: functional
HEK293 [15] = assay: NOD2 signaling inhibitors in MDP-stimulated cells, cell-based, uHTS, luminescence (AID 2001); type: functional; conditions: Homo sapiens
HEK293 [16] = assay: cells; type: functional, cell-based; conditions: Homo sapiens; remark: listed apart in the source
[17] = cytotoxicity in HEK-293T cells, dose response, cytotoxicity control for TCR NF-kB inhibitor project, luminescence, T-cell screen hits (AID 489026); type: functional, cell-based;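 further: cells exposed to compound about 14 hours before the viability readout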

EC50 (Troponin, cardiac muscle): 3.73 µM (active)
SMILES: CCCN1CCc2c(sc(NC(=S)NC(=O)c3ccccc3)c2C#N)C1

EC50 (Troponin, cardiac muscle): > 71.5 µM (inactive)
SMILES: CCc1ccc2c(COC(=O)CNS(=O)(=O)c3ccc(NC(C)=O)cc3)cc(=O)oc2c1

IC50 [1]: > 100 µM (inactive)
IC50 [2]: > 100 µM (not active)
IC50 [3]: 230 µM (active)
SMILES: O=C(/C=C/Nc1ccc(Nc2ccccc2)cc1)c1cccs1

IC50 [4]: > 100 µM (not active)
IC50 [5]: > 100 µM (inactive)
IC50 [6]: 2.52 µM (active)
SMILES: O=C(c1cc(-c2ccc(Cl)cc2Cl)n[nH]1)N1CCCCC1

IC50 [7]: > 100 µM (inactive)
IC50 (Phosphomannomutase 2): > 100 µM (inactive)
SMILES: Oc1ccc(/N=c2\ssnc2Cl)cc1

IC50 [5]: 78.5 µM (active)
IC50 [6]: > 100 µM (inactive)
SMILES: CCCCN1C(=O)/C(=N\Nc2ccccc2F)c2ccccc21

SMILES: CCCCNS(=O)(=O)c1ccc2nc(-c3cccnc3)cc(C(=O)NC3CCCC3)c2c1
Absolute IC50 (CHOP) [8]: 10 µM

IC50 [9]: > 56.8 µM (not active)
IC50 [10]: > 50 µM (inactive)
SMILES: COC(=O)c1ccc(COc2ccc(/C=N/Nc3nc(C)cc(O)n3)cc2)cc1

IC50 (Coagulation factor XII): > 50 µM (inactive)
SMILES: C=CCOC(=O)C1=C(C)N=C(C)/C(=C(/O)OCC=C)C1c1ccc(O)cc1 (stereo not drawn)

SMILES: COC(=O)Cc1nn(-c2nc3ccccc3s2)c(O)c1/C(C)=N/c1ccc(OC)cc1
EC50 (HEK293 [11]): < 0.31 µM (inactive)
IC50 (HEK293 [12]): 1.13 µM (active)
IC50 (HEK293 [13]): > 20 µM (inactive)
EC50 [14]: 0.1 µM (active)
IC50 (HEK293 [15]): 0.103 µM (active)
IC50 (HEK293 [16]): > 20 µM (inactive)
IC50 [17]: > 80 µM (inactive)
